Source: PubChem BioAssay AID2765 (Broad Institute, 2010)
The source made the active and inactive calls.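 The calls were made as follows: active = half-maximal concentration for the rise in caspase light signal at or below ten times the top tested dose; inconclusive = flat fit between 30% and 70% activity, or unreliable curve fit; inactive = the rest.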

Test system: MEF A1-2A-BIM cells, caspase 3/7 luminescence, 3 h
Assay: caspase activation in A1-2A-BIM MEF cells, dose response, A1 inhibitor project, cell-based, luminescence, retest (AID 2765)

Compound: CCOc1ccccc1NC(=O)CN1C(=O)CSC(C)C1=O (centres undefined)
- EC50: > 35 µM (inactive)

Compound: NS(=O)(=O)c1ccc(-c2ccc(/C=C3\C(=O)Nc4ccccc43)o2)cc1
- EC50: > 35 µM (inactive)

Compound: C=CCn1c(SCC(=O)NC23CC4CC(CC(C4)C2)C3)nc(O)cc1=O
- EC50: > 35 µM (inactive)

Compound: Clc1ccc(C2=CC(c3ccco3)n3ncnc3N2)cc1 (centres undefined)
- EC50: > 35 µM (inactive)

Compound: COc1cccc(CNC(=O)CN2C(=O)COc3ccc(S(=O)(=O)N4CCCCCC4)cc32)c1
- EC50: > 35 µM (inactive)

Compound: O=C(c1c[nH]c2ccccc12)C(Cl)c1ccccc1 (centres undefined)
- EC50: > 35 µM (inactive)

Compound: Cc1ccc(C(=O)/C=C/C(=O)c2ccc(C)cc2)cc1
- EC50: 19.4 µM

Compound: CCN(CC)CCCN=C(C)c1c(O)n(-c2ccccc2)c(=O)[nH]c1=O
- EC50: > 35 µM (inactive)

Compound: C=C1CCc2c([nH]c3ccc(OCC(C)C)cc23)C1=O
- EC50: 15.1 µM

Compound: CSC[C@@H]1NC(=S)N(c2ccc(C)cc2)C1=O
- EC50: > 35 µM (inactive)

Compound: COc1cc(-c2nnc(NC(=O)CCS(=O)(=O)c3ccc(F)cc3)o2)cc(OC)c1OC
- EC50: > 35 µM (inactive)

Compound: O=C1NC(=O)C(c2cn(-c3ccccc3)nc2-c2ccc(F)cc2)N1 (centres undefined)
- EC50: > 35 µM (inactive)

Compound: COc1ccc(-c2ccc3c(c2)S(=O)(=O)c2cccc(C(=O)NCc4cccc(OC(F)(F)F)c4)c2C3=O)cc1OC
- EC50: 20.4 µM

Compound: COc1ccccc1NC(=O)Nc1c(C)n(C)n(-c2ccccc2)c1=O
- EC50: > 35 µM (inactive)

Compound: CCCNC(=O)c1ccc(COc2ccc(Cl)cc2)o1
- EC50: > 35 µM (inactive)

Compound: Nc1ccccc1SC(C[N+](=O)[O-])c1ccccc1 (centres undefined)
- EC50: > 35 µM (inactive)

Compound: COc1ccc(-c2ccc3c(c2)S(=O)(=O)c2cccc(C(=O)NCCOc4ccccc4)c2C3=O)cc1OC
- EC50: > 35 µM (inactive)

Compound: CC(C)(C)CC(=O)Nc1nnc(SCC(=O)NC2CCCCC2)s1
- EC50: > 35 µM (inactive)

Compound: O=[N+]([O-])c1ccc(S(=O)(=O)N/N=C/c2ccsc2)cc1
- EC50: > 35 µM (inactive)

Compound: O=C(O)/C=C/C(=O)Nc1ccc(OC(F)F)cc1
- EC50: > 35 µM (inactive)

Compound: Cc1cc(C)cc(N(CC(=O)Nc2cccc(C)c2C)S(=O)(=O)c2c(C)[nH]c(=O)[nH]c2=O)c1
- EC50: > 35 µM (inactive)

Compound: O=C1N(S(=O)(=O)c2ccccc2F)C(=O)C2(CCCC2)N1S(=O)(=O)c1ccccc1F
- EC50: > 35 µM (inactive)

Compound: NCCCC[C@H](N[C@@H](CCc1ccccc1)C(=O)O)C(=O)N1CCC[C@H]1C(=O)O
- EC50: > 35 µM (inactive)

Compound: COc1ccccc1NS(=O)(=O)c1ccc(C)c(C(=O)N2CCN(c3ccc(O)cc3)CC2)c1
- EC50: > 35 µM (inactive)

Compound: Cc1c(Cl)cccc1NC(=O)[C@@]1(CC(=O)O)CC(/C=C/c2ccccc2)=NO1
- EC50: > 35 µM (inactive)

Compound: CC(C)Oc1ccccc1C(=O)NC(CO)C(=O)O (centres undefined)
- EC50: > 35 µM (inactive)

Compound: CSc1nnc(-c2cc3c(-c4ccccc4)nn(C)c3s2)n1C
- EC50: > 35 µM (inactive)

Compound: C=C1C(O)[C@@H]2O[C@]3(CC[C@H](/C=C/C(C)[C@@H]4CC(C)=CC5(O[C@H](C[C@@](C)(O)CO)CCC5O)O4)O3)CC[C@H]2O[C@@H]1C(O)CC(C)[C@H]1OC2(CCCCO2)CCC1C (some centres undefined)
- EC50: > 35 µM (inactive)

Compound: CCOc1ccccc1/C=C/c1nc2ccccc2[nH]c1=O
- EC50: > 35 µM (inactive)

Compound: FC(F)(F)c1ccc(Cl)c(NC2=NCCCCC2)c1
- EC50: > 35 µM (inactive)

Compound: Cc1ccc(C)c(N(C(=O)CCC(=O)Nc2cc(C)on2)C(C(=O)NC2CCCC2)c2ccco2)c1 (centres undefined)
- EC50: > 35 µM (inactive)

Compound: O=[N+]([O-])/C=C/c1ccc2c(ccn2Cc2ccccc2)c1
- EC50: 12.3 µM

Compound: CCCc1nc2sc3c(c2c(=O)n1N)CCC3
- EC50: > 35 µM (inactive)

Compound: C=C1C(=O)O[C@@H]2C[C@@H](C)[C@@H]3C=CC(=O)[C@@]3(C)[C@@H](OC(C)=O)[C@H]12
- EC50: > 35 µM (inactive)

Compound: CCOC(=O)CS(=O)(=O)c1nc(-c2ccccc2)cc(C(F)(F)F)n1
- EC50: > 35 µM (inactive)

Compound: COc1ccc(C(=O)COC(=O)CNS(=O)(=O)c2ccc(C)cc2)cc1
- EC50: > 35 µM (inactive)

Compound: CNC(C)C(=O)NC(C(=O)N1CCCC1C(=O)NC1CCCc2ccccc21)C(C)C (centres undefined)
- EC50: > 35 µM (inactive)

Compound: CC(Sc1nc(-c2ccccc2)cc(C(F)(F)F)n1)C(=O)N1CCCCC1 (centres undefined)
- EC50: > 35 µM (inactive)

Compound: Cc1cc(-c2onc(C)c2C(=O)Nc2ccc(C(F)(F)F)cc2)no1
- EC50: > 35 µM (inactive)

Compound: Clc1ccccc1CN(Cc1ccccc1)c1ncnc2nc[nH]c12
- EC50: > 35 µM (inactive)

Compound: O=C(NCCc1ccc(Cl)cc1)C1CCCN(S(=O)(=O)N2CCCCCC2)C1 (centres undefined)
- EC50: > 35 µM (inactive)

Compound: CC(=O)Nc1ccc(S(=O)(=O)NCCc2ccccn2)cc1
- EC50: > 35 µM (inactive)

Compound: C[N+](C)(C)CCNC(=O)c1cc[n+](Cc2ccccc2)c(/C=N/O)c1
- EC50: > 35 µM (inactive)

Compound: CC(C)(C)[C@H](N)C(=O)N[C@H]1CCC2C3CC=C4C[C@@H](O)CC[C@]4(C)C3CC[C@@]21C (some centres undefined)
- EC50: > 35 µM (inactive)

Compound: CC(C)[C@H](NS(=O)(=O)c1ccccc1F)C(=O)OCC(=O)Nc1cccc(S(N)(=O)=O)c1
- EC50: > 35 µM (inactive)

Compound: Cc1ccc(-n2nc3c(=O)n(CC(=O)NCCC4=CCCCC4)nc(C)c3c2C)cc1
- EC50: > 35 µM (inactive)

Compound: CCn1c(C)[n+](CCOC(C)=O)c2cc(Cl)c(Cl)cc21
- EC50: > 35 µM (inactive)

Compound: Cc1ccccc1Nc1nc(-c2sc(NC(=O)c3cccc(Cl)c3)nc2C)cs1
- EC50: > 35 µM (inactive)

Compound: CC(C)CN(CC(C)C)C(=O)c1cc2c(=O)n3ccccc3nc2s1
- EC50: > 35 µM (inactive)

Compound: O=C(Nc1cccc([N+](=O)[O-])c1)Nc1ccc2c(c1)CCC2
- EC50: > 35 µM (inactive)

Compound: Cc1ccc(S(=O)(=O)n2ccc3c(OCCOCCNCc4ccc(F)cc4)cccc32)cc1
- EC50: > 35 µM (inactive)

Compound: O=C(/C=C/N1CCN(Cc2ccccc2)CC1)C(F)(F)F
- EC50: > 35 µM (inactive)

Compound: Cc1nc(NC(=O)CN2CCN(c3cccc(Cl)c3)CC2)sc1C(=O)N(C)C
- EC50: > 35 µM (inactive)

Compound: NC(=NCCCCCCN=C(N)/N=C(\N)Nc1ccc(Cl)cc1)/N=C(\N)Nc1ccc(Cl)cc1
- EC50: > 35 µM (inactive)

Compound: COc1ccc(-c2nn(-c3ccccc3)cc2/C=C/C(=O)OCC(=O)Nc2ccccc2C#N)cc1
- EC50: 21.2 µM

Compound: COc1ccccc1CN1CC(C(=O)NCCN2CCNC2=O)CCC1=O (centres undefined)
- EC50: > 35 µM (inactive)

Compound: CCOC(=O)/C=c1\s/c(=C\c2ccc(C(=O)OC)cc2)c(=O)n1CC(=O)Nc1ccccc1
- EC50: > 35 µM (inactive)

Compound: CCCCn1c(N2CCCC2)nc2c1c(=O)[nH]c(=O)n2C
- EC50: > 35 µM (inactive)

Compound: CC1CCN(CCCNC(=O)c2cn(C)c3ccc(S(=O)(=O)N4CCCC4)cc3c2=O)CC1
- EC50: > 35 µM (inactive)

Compound: CCCCCCCC/C=C\CCCCCCCC(=O)NCCc1ccc(O)c(O)c1
- EC50: 8.06 µM

Compound: CSc1ccc(S(=O)(=O)N2CCC(C(=O)NCCc3ccccc3)CC2)cc1
- EC50: > 35 µM (inactive)

Compound: CCc1ccccc1NC(=O)C(CC)Sc1nc2cc3c(cc2c(=O)n1Cc1ccco1)OCO3 (centres undefined)
- EC50: > 35 µM (inactive)

Compound: CCOC(=O)c1cc(/C(C)=N/OC(=O)c2ccc(C(C)(C)C)cc2)on1
- EC50: > 35 µM (inactive)

Compound: CC(C)NCC(O)c1ccc(NS(C)(=O)=O)cc1 (centres undefined)
- EC50: > 35 µM (inactive)

Compound: O=C(O)/C(=C\c1c(C(=O)O)[nH]c2cc(Cl)cc(Cl)c12)c1ccccc1
- EC50: > 35 µM (inactive)

Compound: Cc1ccc(NC(=O)c2ccc(N/N=C/c3cccc(O)c3)c([N+](=O)[O-])c2)cc1
- EC50: 21.5 µM

Compound: COc1cc(/C=C(/C#N)C(=O)NCCc2c[nH]c3ccccc23)ccc1OCc1ccccc1F
- EC50: > 35 µM (inactive)

Compound: COc1ccc(NS(=O)(=O)c2cccc(C(=O)OCC(=O)c3c(N)n(C)c(=O)n(C)c3=O)c2)cc1
- EC50: > 35 µM (inactive)

Compound: O=C(COC(=O)/C=C/c1cccc(Cl)c1Cl)Nc1ccc2[nH]c(=O)[nH]c2c1
- EC50: > 35 µM (inactive)

Compound: O=C(NCCN1CCOCC1)c1cc(Cl)ccc1Cl
- EC50: > 35 µM (inactive)

Compound: COc1ccc(CN2CCCCC2C)cc1C (centres undefined)
- EC50: > 35 µM (inactive)

Compound: Cc1ccc(NC(=S)NC(NC(=O)Cc2cccc3ccccc23)C(Cl)(Cl)Cl)cc1 (centres undefined)
- EC50: 20 µM

Compound: Cc1ccc(-c2nc(NC(=O)c3nn(C)cc3[N+](=O)[O-])sc2C)cc1
- EC50: 9.72 µM

Compound: CCC(C)Nc1nnc(SCC(=O)c2c(N)n(C3CC3)c(=O)[nH]c2=O)s1 (centres undefined)
- EC50: > 35 µM (inactive)

Compound: COC(=O)Cn1cc(C(=O)C2CC2)c2ccccc21
- EC50: > 35 µM (inactive)

Compound: CCOC(=O)/C=c1\s/c(=C\c2ccc(C#N)cc2)c(=O)n1CC(=O)Nc1cccc(C)c1C
- EC50: 3.13 µM

Compound: CCOC(=O)[C@H]1[C@H]2COc3cc(OC)ccc3[C@@H]2N2C(=O)c3ccc(C)cc3NC(=O)[C@@]12C
- EC50: > 35 µM (inactive)

Compound: Cc1ccc(-c2nc(NC(=O)c3nn(C)cc3[N+](=O)[O-])sc2C)cc1C
- EC50: 6.26 µM

Compound: CNC(=O)Nc1ccc(Cn2cc(C(F)(F)F)ccc2=O)cc1
- EC50: > 35 µM (inactive)

Compound: CCOc1ccc(CNC2CCCCCCC2)cc1OC
- EC50: > 35 µM (inactive)

Compound: COc1ccc(NC(=O)C(NC(C)=O)C(=O)NCc2ccccc2Cl)cc1 (centres undefined)
- EC50: > 35 µM (inactive)

Compound: CCCCOC(=O)c1ccc(S(N)(=O)=O)o1
- EC50: > 35 µM (inactive)

Compound: CCOC(=O)c1oc2ccccc2c1NC(=O)CN1CCN(C)CC1
- EC50: > 35 µM (inactive)

Compound: Cc1noc(C)c1COc1ccc(C(=O)OC(C)C(=O)Nc2ccc(N3CCOCC3)cc2)cc1 (centres undefined)
- EC50: > 35 µM (inactive)

Compound: Cc1cc(=O)[nH]c(SCC(=O)Nc2ccc(Br)cc2)c1C#N
- EC50: > 35 µM (inactive)

Compound: COc1ccccc1CCC(=O)Nc1ccc(S(=O)(=O)Nc2nccs2)cc1
- EC50: > 35 µM (inactive)

Compound: NCC1CCC(C(=O)Oc2ccc(CCC(=O)O)cc2)CC1 (centres undefined)
- EC50: > 35 µM (inactive)

Compound: N#Cc1c(C(F)(F)F)cc(-c2ccccc2)nc1SCC(=O)Nc1sc2c(c1C#N)CCC2
- EC50: > 35 µM (inactive)

Compound: CN1CCc2c(sc3c2C(=O)NC(c2ccccn2)N3)C1 (centres undefined)
- EC50: > 35 µM (inactive)

Compound: Cc1ccn(C(=O)c2ccc(NC(=O)C3CCCCC3)cc2)n1
- EC50: > 35 µM (inactive)

Compound: Cc1cc(=O)oc2cc(OCCC[n+]3ccccc3)ccc12
- EC50: > 35 µM (inactive)

Compound: Cc1onc(-c2c(Cl)cccc2Cl)c1C(=O)N=S(C)(=O)c1ccccc1 (centres undefined)
- EC50: > 35 µM (inactive)

Compound: CCOc1ccccc1NC(=O)Nc1cc(OC)ccc1OC
- EC50: > 35 µM (inactive)

Compound: CCOC(=O)COc1ccccc1/C=C\[N+](=O)[O-]
- EC50: 5.85 µM
